From patent US12240822B2, “Naphthalene isoxazoline compound and application thereof” (SHANDONG C[…] SEA PHARMACEUTICAL TECHNOLOGY CO., LTD., priority 2023, dated 2025)
Values after ≈ are worked out from the molar mass of the structure shown. Values joined by “and” are separate entries in the source; they are usually repeats but may differ in a detail not shown here. Equal entries are not always repeated.

Columns and labels:
Myzus persicae Sulzer = test: Indoor toxicity test on Myzus persicae Sulzer wingless aphids, insect soaking and leaf soaking method; assay type: in vivo; set-up: LC50 value of the A4 as fraction of the LC50 value of the C4 / LC50 value of the A4 as fraction of the LC50 value of the B4: unit not given beside the values; conditions: for LC50: Myzus persicae Sulzer wingless aphids, 48 h after administration
Method: The aphid species was Myzus persicae Sulzer, which was a sensitive population raised indoors in the bioassay room of the Plant Protection Institute of Shandong Academy of Agricultural Sciences. The temperature range was 24-26° C., the humidity range was 60%-80%, and the illumination was L:D=16 h:8 h. Aphids used for tests were wingless aphids.
Test medicaments were prepared into a mother solution with methanol and then diluted with a Tween-80 aqueous solution having a mass concentration of 0.1% in equal proportions. According to effective components, the B4 was set to 6 concentration gradients of 0.5 mg/L, 1 mg/L, 2 mg/L, 4 mg/L, 8 mg/L, and 16 mg/L; the C4 was set to 6 concentration gradients of 0.5 mg/L, 1 mg/L, 2 mg/L, 4 mg/L, 8 mg/L, and 16 mg/L; and the A4 was set to 6 concentration gradients of 0.05 mg/L, 0.1 mg/L, 0.2 mg/L, 0.4 mg/L, 0.8 mg/L, and 1.6 mg/L. A methanol aqueous solution having a volume concentration of 4% was taken as a blank control.
Insects for tests were processed according to an insect soaking method (NY/T 1154.6-2006) and a leaf soaking method (NY/T 1154.14-2008). Each medicament for tests was diluted to the set 6 concentrations for later use. Absorbent paper was placed at the bottom of a disposable plastic cup, a layer of filter paper was laid on the absorbent paper, and 2 mL of distilled water was added to keep moisture for later use. Leaves with aphids were cut into small leaves, each leaf has about 20 wingless aphids, and the leaves with aphids were gently soaked in the liquid medicine with tweezers and then taken out after 10 s, and placed on the absorbent paper and air-dried. The air-dried leaves were placed in the prepared plastic cups which were then covered, and one leaf was placed in each plastic cup. One repetition was performed for each plastic cup, and 4 repetitions were performed for each concentration. The plastic cups were placed in an illumination incubator, and the number of live aphids and the number of dead aphids were recorded 48 h later.
DPS software was used for processing, and the median lethal concentration LC50 and 95% confidence limit of 3 test medicaments on aphids at 48 h were determined.
The logarithm of the medicament concentration (mg/L) was taken as an independent variable X, the probability value of a corrected death rate was taken as a dependent variable Y, and the LC50 value, 95% confidence limit and R2 of a toxicity regression line were computed by DPS software.

Thrips palmi Karny = test: Indoor toxicity test on Thrips palmi Karny adults, liquid tube drug film method with leaf soaking; assay type: in vivo; set-up: LC90 value of the A4 as fraction of the LC90 value of the C4 / LC90 value of the A4 as fraction of the LC90 value of the B4: unit not given beside the values; conditions: for LC50 / LC90: Thrips palmi Karny adults, 48 h after administration
Method: Through indoor tests, a liquid tube drug film method improved by a filter paper drug film method was used for evaluating the indoor toxicity effects of three raw drugs on Thrips palmi Karny.
Thrips palmi Karny was raised indoors in the insectary of the Plant Protection Institute of Shandong Academy of Agricultural Sciences.
Culture was performed in an illumination incubator, and raising and observation were performed under the conditions that the temperature was 25.0±2.0° C., the relative humidity was 75±5% and the photoperiod (L/D) was 14 h/10 h.
The insect for tests is an adult of Thrips palmi Karny.
Three test medicaments were prepared into a mother solution with methanol and then diluted with a Tween-80 aqueous solution having a mass concentration of 0.1% in equal proportions, and the concentration was set in equal proportions. • B4 concentration: 0.5, 1, 2, 4, 8, 16 mg/L; • C4 concentration: 25, 12.5, 6.25, 3.125, 1.5625, 0.7813 mg/L; • A4 concentration: 0.1, 0.05, 0.025, 0.0125, 0.00625, 0.003125 mg/L. 3.2.2 Test Repetition
Each processing was repeated 4 times, and 30 insects for tests were used for each repetition.
According to NY/T 1154.8-2007, the liquid tube drug film method improved by the filter paper drug film method was used for processing insects for tests. Medicaments for tests were diluted into 6 concentrations, a 1.5 mL centrifugal tube was filled with each concentration of liquid medicine respectively and allowed to stand for 4 h, then the liquid medicine was poured out, and the centrifugal tube was placed on a test table and air-dried for later use. A fine needle tip was heated with an alcohol lamp, and a small hole with a diameter of about 2-3 mm was formed at the bottom of the air-dried centrifugal tube by heating. One repetition was performed for each tube, and 4 repetitions were performed for each concentration. Leaf soaking: A hole puncher was used for punching fresh cabbage leaves into circular leaves with a diameter of 0.5 cm, and the circular leaves were respectively soaked in each concentration of liquid medicine for 10 s with leaf soaking in clear water as a control. The processed leaves were placed on absorbent paper and air-dried and then clamped with small tweezers into the centrifugal tubes with corresponding liquid medicine concentrations, and one leaf was placed flatly in each tube. Indoor insects for tests: An interface of an insect sucker was sealed with gauze and sleeves an orifice of the processed centrifugal tube, and the hole formed by heating at the bottom of the centrifugal tube was aligned with the insects for tests to enable the insects for tests to be sucked into the centrifugal tube along the airflow. The insects for tests were processed after control, about 30 insects for tests were sucked for each repetition, then a tube cover was covered, and the hole formed by heating was sealed with a sealing film. After related information was marked, the number of live insects and the number of dead insects were recorded 48 h later.
Test results were investigated 48 h after drug post-processing.
The logarithm of the medicament concentration (mg/L) was taken as an independent variable X, the probability value of a corrected death rate was taken as a dependent variable Y, and the LC50 value, LC90 value, 95% confidence limit and R2 of a toxicity regression line were computed by DPS software.

[1] = 0.5 mg/L, 48 h, single repetitions 1-4
[2] = 1 mg/L, 48 h, single repetitions 1-4
[3] = 2 mg/L, 48 h, single repetitions 1-4
[4] = 4 mg/L, 48 h, single repetitions 1-4
[5] = 8 mg/L, 48 h, single repetitions 1-4
[6] = 16 mg/L, 48 h, single repetitions 1-4
[7] = 0.05 mg/L, 48 h, single repetitions 1-4
[8] = 0.1 mg/L, 48 h, single repetitions 1-4

SMILES: CO/N=C/NC(=O)c1ccc(C2=NOC(c3cc(Cl)cc(Cl)c3)(C(F)(F)F)C2)cc1C (stereo not shown) [C4, fluxametamide]
- Death rate (Myzus persicae Sulzer; 0.5 mg/L, 48 h, Total): 21.47%
- Death rate (Myzus persicae Sulzer; [1]): 25.00% and 25.71% and 16.67% and 18.52%
- Death rate (Myzus persicae Sulzer; 1 mg/L, 48 h, Total): 46.05%
- Death rate (Myzus persicae Sulzer; [2]): 47.83% and 36.36% and 40.00% and 60.00%
- Death rate (Myzus persicae Sulzer; 2 mg/L, 48 h, Total): 77.48%
- Death rate (Myzus persicae Sulzer; [3]): 85.71% and 77.78% and 75.00% and 71.43%
- Death rate (Myzus persicae Sulzer; 4 mg/L, 48 h, Total): 85.54%
- Death rate (Myzus persicae Sulzer; [4]): 89.29% and 88.00% and 87.10% and 77.78%
- Death rate (Myzus persicae Sulzer; 8 mg/L, 48 h, Total): 96.06%
- Death rate (Myzus persicae Sulzer; [5]): 91.67% and 92.59% and 100.00%
- Death rate (Myzus persicae Sulzer; 16 mg/L, 48 h, Total): 97.20%
- Death rate (Myzus persicae Sulzer; [6]): 93.33% and 100.00% and 95.45%
- LC50 (Myzus persicae Sulzer): 1.1 µg/mL (≈ 2.32 µM)
- Death rate (Thrips palmi Karny; 0.7813 mg/L, 48 h, Total/Average): 14.47%
- Death rate (Thrips palmi Karny; 1.5625 mg/L, 48 h, Total/Average): 25.14%
- Death rate (Thrips palmi Karny; 3.125 mg/L, 48 h, Total/Average): 66.15%
- Death rate (Thrips palmi Karny; 3.125 mg/L, 48 h, single repetitions 1-4): 70.59% and 63.16% and 70.00% and 60.87%
- Death rate (Thrips palmi Karny; 6.25 mg/L, 48 h, Total/Average): 82.01%
- Death rate (Thrips palmi Karny; 6.25 mg/L, 48 h, single repetitions 1-4): 85.71% and 88.00% and 75.00% and 79.31%
- Death rate (Thrips palmi Karny; 12.5 mg/L, 48 h, Total/Average): 87.89%
- Death rate (Thrips palmi Karny; 12.5 mg/L, 48 h, single repetitions 1-4): 88.89% and 85.19% and 87.50% and 90.00%
- Death rate (Thrips palmi Karny; 25 mg/L, 48 h, Total/Average): 96.78%
- Death rate (Thrips palmi Karny; 25 mg/L, 48 h, single repetitions 1-4): 95.83% and 95.65% and 100.00%
- LC50 (Thrips palmi Karny): 2.69 µg/mL (≈ 5.67 µM)
- LC90 (Thrips palmi Karny): 16.1203 µg/mL (≈ 34 µM)

SMILES: CO/N=C/NC(=O)c1ccc(C2=NOC(c3cc(Cl)cc(Cl)c3)(C(F)(F)F)C2)c2ccccc12 (stereo not shown) [B4, 4-(5-(3,5-dichlorophenyl)-5-(trifluoromethyl)-4,5-dihydroisoxazol-3-yl)-N-((methoxylimino)methyl)-1-naphthyl formamide]
- Death rate (Myzus persicae Sulzer; 0.5 mg/L, 48 h, Total): 12.01%
- Death rate (Myzus persicae Sulzer; [1]): 10.00% and 12.50% and 13.04%
- Death rate (Myzus persicae Sulzer; 1 mg/L, 48 h, Total): 20.73%
- Death rate (Myzus persicae Sulzer; [2]): 15.15% and 22.22% and 21.74% and 23.81%
- Death rate (Myzus persicae Sulzer; 2 mg/L, 48 h, Total): 45.08%
- Death rate (Myzus persicae Sulzer; 4 mg/L, 48 h, Total): 61.17%
- Death rate (Myzus persicae Sulzer; [4]): 41.94% and 58.33% and 72.00% and 72.41%
- Death rate (Myzus persicae Sulzer; 8 mg/L, 48 h, Total): 78.33%
- Death rate (Myzus persicae Sulzer; [5]): 80.95% and 66.67% and 85.71% and 80.00%
- Death rate (Myzus persicae Sulzer; 16 mg/L, 48 h, Total): 84.61%
- Death rate (Myzus persicae Sulzer; [6]): 88.89% and 86.96% and 81.82% and 80.77%
- LC50 (Myzus persicae Sulzer): 3.13 µg/mL (≈ 6.14 µM)
- Death rate (Thrips palmi Karny; 0.5 mg/L, 48 h, Total/Average): 18.31%
- Death rate (Thrips palmi Karny; 1 mg/L, 48 h, Total/Average): 30.20%
- Death rate (Thrips palmi Karny; 2 mg/L, 48 h, Total/Average): 33.85%
- Death rate (Thrips palmi Karny; [3]): 30.77% and 36.84% and 27.78% and 40.00%
- Death rate (Thrips palmi Karny; 4 mg/L, 48 h, Total/Average): 47.56%
- Death rate (Thrips palmi Karny; [4]): 52.00% and 41.38% and 54.55% and 42.31%
- Death rate (Thrips palmi Karny; 8 mg/L, 48 h, Total/Average): 67.00%
- Death rate (Thrips palmi Karny; [5]): 79.17% and 68.00% and 58.33% and 62.50%
- Death rate (Thrips palmi Karny; 16 mg/L, 48 h, Total/Average): 98.68%
- Death rate (Thrips palmi Karny; [6]): 100.00% and 94.74%
- LC50 (Thrips palmi Karny): 3.33 µg/mL (≈ 6.53 µM)
- LC90 (Thrips palmi Karny): 33.9739 µg/mL (≈ 66.6 µM)

SMILES: CO/N=C/NC(=O)c1ccc(C2=NOC(c3cc(Cl)cc(C(F)(F)F)c3)(C(F)(F)F)C2)c2ccccc12 (stereo not shown) [A4, 4-(5-(3-chloro-5-(trifluoromethyl)phenyl)-5-(trifluoromethyl)-4,5-dihydroisoxazol-3-yl)-N-((methoxylimino)methyl)-1-naphthyl formamide]
- Death rate (Myzus persicae Sulzer; 0.05 mg/L, 48 h, Total): 15.94%
- Death rate (Myzus persicae Sulzer; [7]): 15.00% and 17.24% and 16.13% and 15.38%
- Death rate (Myzus persicae Sulzer; 0.1 mg/L, 48 h, Total): 24.96%
- Death rate (Myzus persicae Sulzer; [8]): 23.53% and 22.73% and 25.00% and 28.57%
- Death rate (Myzus persicae Sulzer; 0.2 mg/L, 48 h, Total): 33.73%
- Death rate (Myzus persicae Sulzer; 0.2 mg/L, 48 h, single repetitions 1-4): 33.33% and 35.71% and 34.29% and 31.58%
- Death rate (Myzus persicae Sulzer; 0.4 mg/L, 48 h, Total): 40.78%
- Death rate (Myzus persicae Sulzer; 0.4 mg/L, 48 h, single repetitions 1-4): 50.00% and 43.48% and 37.50% and 32.14%
- Death rate (Myzus persicae Sulzer; 0.8 mg/L, 48 h, Total): 63.22%
- Death rate (Myzus persicae Sulzer; 0.8 mg/L, 48 h, single repetitions 1-4): 61.29% and 67.74% and 60.53% and 63.33%
- Death rate (Myzus persicae Sulzer; 1.6 mg/L, 48 h, Total): 84.47%
- Death rate (Myzus persicae Sulzer; 1.6 mg/L, 48 h, single repetitions 1-4): 87.10% and 81.25% and 86.21% and 83.33%
- LC50 (Myzus persicae Sulzer): 0.439 µg/mL (≈ 0.807 µM)
- LC50 value of the A4 as fraction of the LC50 value of the B4 (Myzus persicae Sulzer; Myzus persicae Sulzer, 48 h): 14/100
- LC50 value of the A4 as fraction of the LC50 value of the C4 (Myzus persicae Sulzer; Myzus persicae Sulzer, 48 h): 40/100
- Death rate (Thrips palmi Karny; 0.003125 mg/L, 48 h, Total/Average): 9.97%
- Death rate (Thrips palmi Karny; 0.00625 mg/L, 48 h, Total/Average): 37.74%
- Death rate (Thrips palmi Karny; 0.00625 mg/L, 48 h, single repetitions 1-4): 35.00% and 29.41% and 42.11% and 44.44%
- Death rate (Thrips palmi Karny; 0.0125 mg/L, 48 h, Total/Average): 61.14%
- Death rate (Thrips palmi Karny; 0.0125 mg/L, 48 h, single repetitions 1-4): 55.00% and 60.00% and 69.57%
- Death rate (Thrips palmi Karny; 0.025 mg/L, 48 h, Total/Average): 80.47%
- Death rate (Thrips palmi Karny; 0.025 mg/L, 48 h, single repetitions 1-4): 85.19% and 73.91% and 80.95% and 81.82%
- Death rate (Thrips palmi Karny; 0.05 mg/L, 48 h, Total/Average): 91.01%
- Death rate (Thrips palmi Karny; [7]): 85.71% and 91.30% and 94.44% and 92.59%
- Death rate (Thrips palmi Karny; 0.1 mg/L, 48 h, Total/Average): 100.00%
- Death rate (Thrips palmi Karny; [8]): 100.00%
- LC50 (Thrips palmi Karny): 0.0123 µg/mL (≈ 0.0226 µM)
- LC90 (Thrips palmi Karny): 0.0705 µg/mL (≈ 0.13 µM)
- LC90 value of the A4 as fraction of the LC90 value of the B4 (Thrips palmi Karny; Thrips palmi Karny, 48 h): 2/1000
- LC90 value of the A4 as fraction of the LC90 value of the C4 (Thrips palmi Karny; Thrips palmi Karny, 48 h): 4/1000
